Assay results as given in ChEMBL document CHEMBL6087482, “Discovery of INCB159020, an Orally Bioavailable KRAS G12D Inhibitor” (J Med Chem, 2025).

Key:
[1] = target: GTPase KRas (Homo sapiens, UniProt P01116, G12D); test: Inhibition of bodipy-loaded KRAS G12D mutant (unknown origin) assessed as GDP-GTP exchange preincubated for 4 hrs followed by GppNHp and SOS1 addition and measured after 2 hrs by fluorescence based plate reader analysis
[2] = Inhibition of ERK phosphorylation in KRAS G12D mutant dependent human HPAF-II cells incubated for 2 hrs by HTRF assay; assay type: cell-based
[3] = Inhibition of ERK phosphorylation in KRAS G12D mutant dependent human HPAF-II cells incubated for 2 hrs with human whole blood containing compound by HTRF assay; assay type: cell-based
[4] = Apparent permeability across apical to basolateral side in human Caco-2 cells at 50 uM incubated for 120 mins by LC-MS analysis; assay type: ADME, cell-based
[5] = Intrinsic clearance in human liver microsomes at 1 uM measured upto 30 mins in presence of NADPH by LC/MS analysis; assay type: ADME, Microsome; conditions: read-out: CLH (converted)
[6] = target: GTPase KRas (Homo sapiens, UniProt P01116); test: Binding affinity to KRAS (unknown origin) assessed as dissociation constant by SPR analysis
[7] = Efflux ratio of apparent permeability in human Caco-2 cells at 50 uM incubated for 120 mins by LC-MS analysis; assay type: ADME, cell-based
[8] = Cmax in Sprague-Dawley rat at 3 mg/kg, po or 1 mg/kg, iv measured after 24 hrs by LC-MS/MS analysis; assay type: ADME, organism-based; conditions: in vivo
[9] = AUC in Sprague-Dawley rat at 3 mg/kg, po or 1 mg/kg, iv measured after 24 hrs by LC-MS/MS analysis; assay type: ADME, organism-based; conditions: in vivo
[10] = Oral bioavailability in Sprague-Dawley rat at 3 mg/kg measured after 24 hrs by LC-MS/MS analysis; assay type: ADME, organism-based; conditions: in vivo
[11] = Clearance in Sprague-Dawley rat assessed as hepatic blood flow at 3 mg/kg, po or 1 mg/kg, iv measured after 24 hrs by LC-MS/MS analysis; assay type: ADME, organism-based; conditions: in vivo
[12] = Half-life in Sprague-Dawley rat at 3 mg/kg, po or 1 mg/kg, iv measured after 24 hrs by LC-MS/MS analysis; assay type: ADME, organism-based; conditions: in vivo
[13] = Cmax in Non human primate at 2.0 mg/kg, po or 0.5 mg/kg, iv; assay type: ADME, organism-based; conditions: primates, in vivo
[14] = tested on: Primates; test: AUC in Non human primate at 2.0 mg/kg, po or 0.5 mg/kg, iv; assay type: ADME, organism-based; conditions: in vivo
[15] = Oral bioavailability in Non human primate at 2.0 mg/kg; assay type: ADME, organism-based; conditions: primates, in vivo
[16] = tested on: Primates; test: Clearance in Non human primate assessed as hepatic blood flow at 2.0 mg/kg, po or 0.5 mg/kg, iv; assay type: ADME, organism-based; conditions: in vivo
[17] = Half-life in Non human primate at 2.0 mg/kg, po or 0.5 mg/kg, iv; assay type: ADME, organism-based; conditions: primates, in vivo
[18] = tested on: Primates; test: Clearance in Non human primate at 2.0 mg/kg, po or 0.5 mg/kg, iv; assay type: ADME, organism-based; conditions: in vivo
[19] = Cmax in Sprague-Dawley rat at 3 mg/kg, po or 0.1 mg/kg, iv measured after 24 hrs by LC-MS/MS analysis; assay type: ADME, organism-based; conditions: in vivo
[20] = AUC in Sprague-Dawley rat at 3 mg/kg, po or 0.1 mg/kg, iv measured after 24 hrs by LC-MS/MS analysis; assay type: ADME, organism-based; conditions: in vivo
[21] = Clearance in Sprague-Dawley rat assessed as hepatic blood flow at 3 mg/kg, po or 0.1 mg/kg, iv measured after 24 hrs by LC-MS/MS analysis; assay type: ADME, organism-based; conditions: in vivo
[22] = Half-life in Sprague-Dawley rat at 3 mg/kg, po or 0.1 mg/kg, iv measured after 24 hrs by LC-MS/MS analysis; assay type: ADME, organism-based; conditions: in vivo
[23] = Cmax in Non human primate at 2.0 mg/kg, po or 1 mg/kg, iv; assay type: ADME, organism-based; conditions: primates, in vivo
[24] = AUC in Non human primate at 2.0 mg/kg, po or 1 mg/kg, iv; assay type: ADME, organism-based; conditions: primates, in vivo
[25] = tested on: Primates; test: Clearance in Non human primate assessed as hepatic blood flow at 2.0 mg/kg, po or 1 mg/kg, iv; assay type: ADME, organism-based; conditions: in vivo
[26] = Half-life in Non human primate at 2.0 mg/kg, po or 1 mg/kg, iv; assay type: ADME, organism-based; conditions: primates, in vivo
[27] = In vivo inhibition of ERK phosphorylation in tumor of mouse xenografted with HPAC cells at 6 mg/kg, po measured after 4 hrs relative to control; assay type: functional

Sequence of GTPase KRas (Homo sapiens, UniProt P01116) (P01116 whole entry): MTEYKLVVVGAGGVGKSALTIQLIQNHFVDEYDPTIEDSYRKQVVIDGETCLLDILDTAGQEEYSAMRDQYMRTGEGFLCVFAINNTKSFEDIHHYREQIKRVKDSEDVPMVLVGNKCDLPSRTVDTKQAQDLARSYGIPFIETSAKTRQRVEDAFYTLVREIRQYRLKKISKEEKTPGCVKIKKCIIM

IC50 [1] [nM] | IC50 [2] [nM] | IC50 [3] [nM] | Papp A→B at 2 h, 50 µM [4] [×10⁻⁶ cm/s] | hepatic clearance at 1 µM [5] [mL/min/kg] | Kd [6] [nM] | SMILES | also measured
6.1 | 39 | 1030 | 0.7 | > 18.3 |  | Cc1nc2c(F)c(-c3cccc4ccc(F)cc34)c(CCC#N)cc2c2c1cc(CN1CCCCC1=O)n2[C@H]1[C@H]2CN[C@@H]1C2 | 
3.7 | 10 | 519 | 1.7 | > 18.3 | 0.84 | N#CCCc1cc2c(nc(-n3cncn3)c3cc(CN4CCOCC4=O)n([C@H]4[C@H]5CN[C@@H]4C5)c32)c(F)c1-c1cccc2ccc(F)cc12 | 
2.1 | 20 | 410 | < 0.1 | > 18.3 | < 0.001 | CN(C)C(=O)CCc1cc2c(OC[C@@]34CCCN3C[C@H](F)C4)nc3c(F)c(-c4cc(O)cc5ccccc45)c(CCC#N)cc3c2n1[C@H]1[C@H]2CN[C@@H]1C2 | 
8000 |  |  |  |  |  | CN(C)C1CN(c2nc(N3CCNCC3)c3cc(Cl)c(-c4cc(O)cc5ccccc45)c(F)c3n2)C1 | 
3.8 | 28 | 492 | 0.2 | > 18.3 | 0.26 | CCOc1nc2c(F)c(-c3cc(O)cc4ccccc34)c(CCC#N)cc2c2c1cc(CCC(=O)N(C)C)n2[C@H]1[C@H]2CN[C@@H]1C2 | 
 | 62 | 1100 |  |  | 0.24 | N#CCCc1cc2c(nc(OC[C@@]34CCCN3C[C@H](F)C4)c3cc(CCC(=O)N4CCC4)n([C@@H]4[C@H]5CN[C@@H]4C5)c32)c(F)c1-c1cccc2ccc(F)cc12 | 
12 | 1300 |  |  |  | 3 | Cc1cc2c(nc(N3CC(N(C)C)C3)c3nc(CCC(=O)N(C)C)n([C@H]4[C@H]5CN[C@@H]4C5)c32)c(F)c1-c1cc(O)cc2ccccc12 | 
3.8 | 17 | 626 | 1.1 | 11.7 |  | N#CCCc1cc2c(nc(-c3ccncn3)c3cc(CN4CCOCC4=O)n([C@H]4[C@H]5CN[C@@H]4C5)c32)c(F)c1-c1cccc2ccc(F)cc12 | efflux ratio at 2 h, 50 µM [7]: 20
3.5 | 45 | 597 |  |  |  | Cc1nc2c(F)c(-c3cc(O)cc4ccccc34)c(CCC#N)cc2c2c1cc(CN1CCCCC1=O)n2[C@H]1[C@H]2CN[C@@H]1C2 | 
3 | 104 | 1130 |  |  | 0.04 | CN(C)C(=O)CCc1cc2c(N3CC(C)(N(C)C)C3)nc3c(F)c(-c4cc(O)cc5ccccc45)c(CCC#N)cc3c2n1[C@H]1[C@H]2CN[C@@H]1C2 | 
2.9 | 127 | 977 |  |  | 0.02 | CN(C)C(=O)CCc1nc2c(N3CC(N(C)C)C3)nc3c(F)c(-c4cc(O)cc5ccccc45)c(CCC#N)cc3c2n1[C@H]1[C@H]2CN[C@@H]1C2 | 
2.7 | 7.2 | 677 | 0.7 | > 18.3 |  | Cc1nc2c(F)c(-c3cccc4ccc(F)cc34)c(CCC#N)cc2c2c1cc(CN1CCOCC1=O)n2[C@H]1[C@H]2CN[C@@H]1C2 | 
2.9 | 92 | 1240 |  |  | 0.031 | CN(C)C(=O)CCc1nc2c(N3CC(C)(N(C)C)C3)nc3c(F)c(-c4cc(O)cc5ccccc45)c(CCC#N)cc3c2n1[C@H]1[C@H]2CN[C@@H]1C2 | 
2.6 | 21 | 2350 | 0.2 | > 18.3 | 0.05 | CCOc1nc2c(F)c(-c3cc(O)cc4ccccc34)c(CCC#N)cc2c2c1cc(CN1CCCCC1=O)n2[C@H]1[C@H]2CN[C@@H]1C2 | 
6.9 | 36 | 565 | 1.6 | 16.7 | 1.2 | Cc1cc(-c2nc3c(F)c(-c4cccc5ccc(F)cc45)c(CCC#N)cc3c3c2cc(CN2CCOCC2=O)n3[C@H]2[C@H]3CN[C@@H]2C3)ccn1 | Cmax [8]: 41.5 nM; AUC at 24 h [9]: 0.108 µM·h; bioavailability [10]: 11%; QH [11]: > 100%; half-life [12]: 210 min; Cmax [13]: 2.5 nM; AUC [14]: Below_limit_of_detection; bioavailability [15]: 0%; QH [16]: 37%; half-life [17]: 504 min; CL [18]: 0.97 L/h/kg
391 |  |  |  | 11.7 |  | CCOc1nc2c(F)c(-c3cccc4ccc(F)cc34)c(CCC#N)cc2c2c1cc(CCC(=O)N(C)C)n2[C@H]1[C@H]2CN[C@@H]1C2 | 
671 |  |  |  |  |  | CN(C)C1CN(c2nc3c(F)c(-c4cc(O)cc5ccccc45)c(Cl)cc3c3c2ncn3[C@H]2[C@H]3CN[C@@H]2C3)C1 | 
2.1 | 7.5 | 103 | 0.6 | > 18.3 | 0.94 | Cc1cc(-c2nc3c(F)c(-c4cccc5ccc(F)cc45)c(CCC#N)cc3c3c2cc([C@@H](C)N2CCOCC2=O)n3[C@H]2[C@H]3CN[C@@H]2C3)ccn1 | 
2.8 | 6.8 | 55 | 1.4 | > 18.3 | 1.5 | Cc1cnc(-c2nc3c(F)c(-c4cccc5ccc(F)cc45)c(CCC#N)cc3c3c2cc([C@@H](C)N2CCOCC2=O)n3[C@H]2[C@H]3CN[C@@H]2C3)cn1 | bioavailability [10]: 20%; Cmax [19]: 24 nM; AUC at 24 h [20]: 0.085 µM·h; QH [21]: > 100%; half-life [22]: 150 min; bioavailability [15]: 2%; Cmax [23]: 7.2 nM; AUC [24]: 0.068 µM·h; QH [25]: 39%; half-life [26]: 294 min
3.6 | 54 | 2620 |  |  | 0.1 | CC(Oc1nc2c(F)c(-c3cc(O)cc4ccccc34)c(CCC#N)cc2c2c1cc(CCC(=O)N(C)C)n2[C@H]1[C@H]2CN[C@@H]1C2)C1CCCN1C (single isomer, unassigned) | 
15 | 1240 |  |  |  |  | CC(Oc1nc2c(F)c(-c3cc(O)cc4ccccc34)c(CCC#N)cc2c2c1nc(CCC(=O)N(C)C)n2[C@H]1[C@H]2CN[C@@H]1C2)C1CCCN1C (single isomer, unassigned) | 
 |  |  |  |  |  | CC(=O)Nc1cccc(-n2c(=O)n(C3CC3)c(=O)c3c(Nc4ccc(I)cc4F)n(C)c(=O)c(C)c32)c1 [TRAMETINIB] | inhibition in vivo at 6 mg/kg [27]: 99%

SMILES | IC50 [1] [nM] | IC50 [2] [nM] | IC50 [3] [nM] | Papp A→B at 2 h, 50 µM [4] [×10⁻⁶ cm/s] | hepatic clearance at 1 µM [5] [mL/min/kg] | Kd [6] [nM] | also measured
CN(C)C1CN(c2nc(N3CC4CCC(C3)N4)c3cc(Cl)c(-c4cc(O)cc5ccccc45)c(F)c3n2)C1 | 704 |  |  |  |  |  | 
